Experimental data reported in patent publication US6511971B1, “Substituted perhalogenated phthalocyanines” (Brown University Research Foundation, priority 1998, dated 2003).

What was measured:
[1] = system: EMT-6 tumor; test: In vivo phototoxicity: photodynamic therapy in murine EMT-6 tumor model; parameters: species or system BALB/c mice; conditions: CRM emulsion
Protocol: The in vivo phototoxicity effects of ZnPcF64 on mouse tumors were determined by J. E. van Lier and colleagues at the University of Sherbrooke, Sherbrooke, QC, Canada, in accordance with published procedures. (Alleman et al. Int. J. Cancer, 72:289-294 (1997))
Experiments were performed on male BALB/c mice (16-22 g) and female Fisher CDF (F-344) rats (approx. 150 g) (Charles River, Montreal, Canada) following a protocol approved by the Canadian Council on Animal Care and an in-house ethics committee. Animals were allowed free access to water and food throughout the course of the experiments. Before tumor implantation, hair on the hind legs and back of the mice was removed by shaving and chemical depilating (Nair®, Whitehall, Mississauga, Canada). A tumor was implanted on each hind thigh by intradermal injection of 2 times 10^5 EMT-6 cells suspended in 0.05 ml Waymouth's growth medium. Biodistribution and photodynamic activity of ZnPcF64 were assayed using a murine EMT-6 tumor model (Allémann et al. Int. J. Cancer, 72:289-294 (1997)).
For PDT studies, mice were used 6-8 days after tumor inoculation (tumor size: 3-5 mm diameter, 2-3 mm thickness). At this time point, the tumor is sufficiently large to be measured, while therapeutic response can be observed without interference of spontaneous necrosis (Margaron et al. Anticancer Res. 16:613-620 (1996)). Animals were given an i.v. injection of ZnPcF64 formulated as a CRM emulsion at I or 2.5 μmol kg^−1 (0.2 ml), and one tumor was treated with red light 24-72 hr later, while the other tumor served as a control. Tumors were illuminated with an 8-mm diameter beam of 650-700 nm light ([…] for a total fluence of 100-400 J .cm^−2) generated by a 1,000 W Xenon lamp, equipped with a 10-cm circulating water filter and 2 glass filters (Corion LL650 and LS700, Holliston, Mass.). A positive tumor response (necrosis) was assigned to tumors which appeared macroscopically as flat and necrotic tissues within a few days after PDT (Allémann et al. Int. J Canc. 66:821-824 (1996)). […]

[2] = system: EMT-6 mouse mammary tumor cells; test: In vitro phototoxicity: cell photo-inactivation, MTT cell survival assay; assay type: cell-based; conditions: EMT-6 cells
Protocol: Chremophor emulsions were prepared and cell photo inactivation was determined by J. E. van Lier and colleagues at the University of Sherbrooke, Sherbrooke, QC, Canada, in accordance with published procedures. (Alleman et al. Int. J. Cancer, 72:289-294 (1997))
Chremophor EL (CRM) was obtained from BASF (Toronto, Canada). All solvents were of analytical grade, and all other chemicals were commercially available products. Zinc octakis (perfluoroisopropyl) perfluorophthalocyanine (“ZnPcF64”, 2.5 mg) was first dissolved in methanol (2 mL). 500 μL of Chremophor and 150 μL of propane diol were added to the solution. The methanol was evaporated by rotory evaporation at room temperature. The residue was diluted with PBS to 5 mL and sterile filtered (0.2 μm). […]
After incubation, cells were rinsed twice with PBS, refed with 100 μl Waymouth 15% FBS and exposed to red light. […] The fluence rate calculated over the absorbance peaks of the dyes (660-700 nm) was 10 mW cm^−2, for a total fluence of 0.6-36 J/cm^2. […] Plates were incubated overnight at 37° C., after which the absorbance was read at 595 nm by means of a microplate reader (BioRad, Mississauga, Canada). The average absorbance of the blank wells in which cells were omitted was subtracted from the readings of the other wells. The average absorbance of the control cells, which were incubated with dye-free Waymouth 1% FBS, represents 100% cell survival. […]

Question: What does the source list for “Zinc Octakis (perfluoroisopropyl) Perfluorophthalocyanine, Bis-acetone Solvate [ZnPcF64]”?
Answer: tumor response after PDT ([1]; 1 μmol/kg i.v., 650-700 nm light 24-72 hr later, EMT-6 tumor in mice): complete tumor necrosis; inflammation after PDT ([1]; 1 μmol/kg i.v., 650-700 nm light, EMT-6 tumor in mice): some inflammation; outcome of treated mice (lethality) ([1]; 2.5 μmol/kg i.v., tumor-bearing mice): died of shock; phototoxic effects ([2]; CRM emulsion at 1 and 3 μM, 1 or 24 hours incubation, red light 660-700 nm, 0.6-36 J/cm^2, any conditions): No phototoxic effects; Cell survival ([2]; highest dye concentrations and longest light exposure): 100%
